Experimental data: patent publication US20100240709A1, “Sulfoximine Derivatives as p38 MAP Kinase Inhibitors” (priority 2005, published 2010)

biological target: p38 MAP kinase (Homo sapiens, UniProt Q16539); test: p-38 MAPK Enzyme assay (in vitro ELISA, ATF-2 substrate); type: biochemical; settings: ELISA detection of phosphorylated ATF-2
Excerpt: The compounds were screened using an in vitro ELISA assay for p38 MAP kinase activity. Activated p38 MAP kinase during the course of its biological function phosphorylates its substrates. The assay was based on the detection of a phosphorylated p38 MAP kinase substrate using ATF-2 as the biological substrate. More the activity of the p38 MAP kinase inhibitor in the reaction mixture less will be the amount of active p38 MAP kinase available to phosphorylate ATF-2. So, lower OD value will indicate the higher inhibition of p38 MAP kinase by the specific p38 MAP kinase inhibitor. The quantitation of phosphorylated ATF-2 at varying concentrations of p38 MAP kinase inhibitor was used to determine the IC50 by fitting the results to a logistic dose-response program (Graphpad Prism, CA). IC50 was defined as the concentration of compound required to achieve 50% inhibition of p38 MAP kinase activity.

Sequence of p38 MAP kinase (Q16539 whole entry): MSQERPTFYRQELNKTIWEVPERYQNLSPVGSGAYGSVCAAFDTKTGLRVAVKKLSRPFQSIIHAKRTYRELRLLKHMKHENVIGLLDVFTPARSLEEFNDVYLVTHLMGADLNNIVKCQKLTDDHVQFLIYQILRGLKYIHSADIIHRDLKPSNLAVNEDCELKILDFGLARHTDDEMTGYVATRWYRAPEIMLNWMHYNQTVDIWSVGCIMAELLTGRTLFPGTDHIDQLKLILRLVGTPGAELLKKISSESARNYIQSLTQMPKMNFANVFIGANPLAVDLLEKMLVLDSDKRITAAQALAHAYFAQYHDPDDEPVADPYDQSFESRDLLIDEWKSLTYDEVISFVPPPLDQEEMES

| Compound | IC50 [µM] |
| --- | --- |
| CCc1nc(-c2ccccc2)c(-c2ccnc(N=S(C)(=O)c3ccccc3)c2)s1 (single isomer, unassigned; (+)) [Example 21] | 2.7 |
| CCc1nc(-c2ccc(F)cc2)c(-c2ccnc(N=S(=O)(c3ccccc3)C(C)C)c2)s1 (single isomer, unassigned; (+)) [Example 37, (+)-S-Isopropyl-S-phenyl-N-{4-[2-ethyl-4-(4-fluoro-phenyl)-thiazol-5-yl]-pyridin-2-yl}-sulfoximine] | 5.93 |
| CCc1nc(-c2ccc(F)cc2)c(-c2ccnc(N=S(C)(=O)c3ccccc3)c2)s1 (single isomer, unassigned; (+)) [Example 40, (+)-S-Methyl-S-phenyl-N-[4-(2-ethyl-4-(4-fluoro-phenyl)-1,3-thiazol-5-yl)-pyridine-2-yl]-sulfoximine] | 2.7 |
| CCc1nc(-c2cccc(C)c2)c(-c2ccnc(N=S(C)(=O)c3ccccc3)c2)s1 (single isomer, unassigned; (-)) [Example 6, (−)-S-methyl-S-phenyl-N-[4-(2-ethyl-4-(3-methylphenyl)-1,3-thiazol-5-yl)-pyridine-2-yl]-sulfoximine] | 0.15 |
| CCc1nc(-c2ccccc2)c(-c2ccnc(N=S(C)(=O)c3ccccc3)c2)s1 (single isomer, unassigned; (-)) [Example 20] | 0.8 |
| CCc1nc(-c2ccccc2)c(-c2ccnc(N=S(=O)(c3ccccc3)C3CCCC3)c2)s1 (single isomer, unassigned; (-)) [Example 29] | 2.6 |
| CCc1nc(-c2ccc(F)cc2)c(-c2ccnc(N=S(C)(=O)c3ccccc3)c2)s1 (single isomer, unassigned; (-)) [Example 33, (−)-S-Methyl-S-phenyl-N-{-4-[2-ethyl-4-(4-fluoro-phenyl)-thiazol-5-yl]-pyridin-2-yl}-sulfoximine] | 3.9 |
| CCc1nc(-c2cccc(C)c2)c(-c2ccnc(N=S(=O)(c3ccccc3)C3CCCC3)c2)s1 (stereo not shown) [Example 1, S-Cyclopentyl-S-phenyl-N-[4-(2-ethyl-4-(3-methylphenyl)-1,3-thiazol-5-yl)-pyridine-2-yl]-sulfoximine] | 0.78 |
| CCc1nc(-c2cccc(C)c2)c(-c2ccnc(N=S(=O)(C3CCCCC3)C3CCCCC3)c2)s1 [Example 2, S,S-dicyclohexyl-N-[4-(2-ethyl-4-m-tolyl-thiazol-5-yl)-pyridine-2-yl]sulfoximine] | 1.2 |
| CCc1nc(-c2cccc(C)c2)c(-c2ccnc(N=S(C)(=O)c3ccc(OC)cc3)c2)s1 (stereo not shown) [Example 3, S-Methyl-S-4-methoxyphenyl-N-[4-(2-ethyl-4-m-tolyl-thiazol-5-yl)-pyridine-2-yl]-sulfoximine] | 1.1 |
| CCc1nc(-c2cccc(C)c2)c(-c2ccnc(N=S(C)(=O)c3ccccc3)c2)s1 (stereo not shown) [Example 4, S-Methyl-S-phenyl-N-[4-(2-ethyl-4-(3-methylphenyl)-1,3-thiazol-5-yl)-pyridine-2-yl]-sulfoximine] | 1.12 |
| CCc1nc(-c2cccc(C)c2)c(-c2ccnc(N=[S@@](C)(=O)c3ccccc3)c2)s1 [Example 5, (+)-(S)-methyl-S-phenyl-N-[4-(2-ethyl-4-(3-methylphenyl)-1,3-thiazol-5-yl)-pyridine-2-yl]-sulfoximine] | 1.4 |
| CCc1nc(-c2cccc(C)c2)c(-c2ccnc(N=S(C)(=O)c3ccc(F)cc3)c2)s1 (stereo not drawn) [Example 7, S-Methyl-S-(4-fluorophenyl)-N-[4-(2-ethyl-4-(3-methylphenyl)-1,3-thiazol-5-yl)-pyridine-2-yl]-sulfoximine] | 3.8 |
| CCc1nc(-c2cccc(C)c2)c(-c2ccnc(N=S(=O)(CC(C)C)c3ccccc3)c2)s1 (stereo not shown) [Example 8, S-Isobutyl-S-phenyl-N-[4-(2-ethyl-4-m-tolyl-thiazol-5-yl)-pyridin-2-yl]-sulfoximine] | 55.4 |
| CCc1nc(-c2cccc(C)c2)c(-c2ccnc(N=S(C)(=O)c3cccc(F)c3)c2)s1 (stereo not drawn) [Example 9, S-(3-Fluorophenyl)-S-methyl-N-[4-(2-ethyl-4-m-tolyl-thiazol-5-yl)-pyridin-2-yl]-sulfoximine] | 5.42 |
| CCc1nc(-c2cccc(C)c2)c(-c2ccnc(N=S(C)(=O)c3cccc(C)c3)c2)s1 (stereo not drawn) [Example 10, S-(3-Methylphenyl)-S-methyl-N-[4-(2-ethyl-4-m-tolyl-thiazol-5-yl)-pyridin-2-yl]-sulfoximine] | 11.1 |
| CCc1nc(-c2cccc(C)c2)c(-c2ccnc(N=S(=O)(c3ccccc3)c3ccccc3)c2)s1 [Example 11, S,S-Diphenyl-N-[4-(2-ethyl-4-m-tolyl-thiazol-5-yl)-pyridin-2-yl]-sulfoximine] | 2 |
| CCc1nc(-c2cccc(C)c2)c(-c2ccnc(N=S(C)(=O)c3ccccc3C)c2)s1 (stereo not drawn) [Example 12, S-(2-Methylphenyl)-S-methyl-N-[4-(2-ethyl-4-m-tolyl-thiazol-5-yl)-pyridin-2-yl]-sulfoximine] | 6.95 |
| CCc1nc(-c2cccc(C)c2)c(-c2ccnc(N=S(=O)(c3ccccc3)C(C)C)c2)s1 (stereo not shown) [Example 13, S-Isopropyl-S-phenyl-N-[4-(2-ethyl-4-(3-methylphenyl)-1,3-thiazol-5-yl)-pyridine-2-yl]-sulfoximine] | 1.3 |

| Compound | IC50 [µM] |
| --- | --- |
| CCc1nc(-c2cccc(C)c2)c(-c2ccnc(N=S(=O)(CC)c3ccccc3)c2)s1 (stereo not shown) [Example 14, S-Ethyl-S-Phenyl-N-[4-(2-ethyl-4-(3-methylphenyl)-1,3-thiazol-5-yl)-pyridine-2-yl]-sulfoximine] | 6.2 |
| CCc1nc(-c2cccc(C)c2)c(-c2ccnc(N=S(C)(=O)c3ccc(C)cc3)c2)s1 (stereo not shown) [Example 15, S-Methyl-S-4-methylphenyl-N-[4-(2-ethyl-4-(3-methylphenyl)-1,3-thiazol-5-yl)-pyridine-2-yl]-sulfoximine] | 4.9 |
| CCCCS(=O)(CCCC)=Nc1cc(-c2sc(CC)nc2-c2cccc(C)c2)ccn1 [Example 16, Di-n-butyl-N-[4-(2-ethyl-4-(3-methylphenyl)-1,3-thiazol-5-yl)-pyridine-2-yl]-sulfoximine] | 1.9 |
| CCc1nc(-c2cccc(C)c2)c(-c2ccnc(N=S(C)(=O)c3ccc(F)c(Cl)c3)c2)s1 (stereo not drawn) [Example 17, S-Methyl-S-(3-chloro-4-fluoro-phenyl)-N-[4-(2-ethyl-4-(3-methylphenyl)-1,3-thiazol-5-yl)-pyridine-2-yl]-sulfoximine] | 10 |
| CCc1nc(-c2cccc(C)c2)c(-c2ccnc(N=S3(=O)CCCCC3)c2)s1 [Example 18, 1-Imino-N-[4-(2-ethyl-4-(3-methylphenyl)-1,3-thiazol-5-yl)-pyridine-2-yl]-tetrahydro-2H-thiopyran-1-oxide] | 15 |
| CCc1nc(-c2cccc(C)c2)c(-c2ccnc(N=S3(=O)CCCC3)c2)s1 [Example 19, 1-Imino-N-[4-(2-ethyl-4-(3-methylphenyl)-1,3-thiazol-5-yl)-pyridine-2-yl]-tetrahydro-thiophene-1-oxide] | 6.8 |
| CCc1nc(-c2ccccc2)c(-c2ccnc(N=S(=O)(c3ccccc3)C(C)C)c2)s1 (stereo not shown) [Example 22] | 5.01 |
| CCc1nc(-c2ccccc2)c(-c2ccnc(N=S(C)(=O)c3ccc(OC)cc3)c2)s1 (stereo not shown) [Example 23] | 6.6 |
| CCc1nc(-c2ccccc2)c(-c2ccnc(N=S(C)(=O)c3ccc(F)cc3)c2)s1 (stereo not shown) [Example 27] | 3.1 |
| CCc1nc(-c2ccccc2)c(-c2ccnc(N=S(=O)(c3ccccc3)C3CCCC3)c2)s1 (stereo not shown) [Example 28, S-Cyclopentyl-S-phenyl-N-[4-{2-ethyl-4-phenyl-thiazol-5-yl}-pyridine]-sulfoximine] | 0.46 |
| CCc1nc(-c2ccccc2)c(-c2ccnc(N=S(C)(=O)c3ccccc3)c2)s1 (stereo not shown) [Example 31] | 3.2 |
| CCc1nc(-c2ccccc2)c(-c2ccnc(N=S(=O)(c3ccccc3)c3ccccc3)c2)s1 [Example 32, S,S-diphenyl-N-[4-(2-ethyl-4-phenyl-thiazol-5-yl)-pyridin-2-yl]-sulfoximine] | 10 |
| CCc1nc(-c2ccc(F)cc2)c(-c2ccnc(N=S(C)(=O)c3ccc(OC)cc3)c2)s1 (stereo not drawn) [Example 34, S-(4-Methoxy-phenyl)-S-methyl-N-{-4-[2-ethyl-4-(4-fluoro-phenyl)-thiazol-5-yl]-pyridin-2-yl}-sulfoximine] | 6.4 |
| CCc1nc(-c2ccc(F)cc2)c(-c2ccnc(N=S(=O)(c3ccccc3)C(C)C)c2)s1 (stereo not shown) [Example 35, S-Isopropyl-S-phenyl-N-{-4-[2-ethyl-4-(4-fluoro-phenyl)-thiazol-5-yl]-pyridin-2-yl}-sulfoximine] | 14.6 |
| CCc1nc(-c2ccc(F)cc2)c(-c2ccnc(N=S(=O)(CC)c3ccccc3)c2)s1 (stereo not shown) [Example 38, S-Ethyl-S-phenyl-N-{4-[2-ethyl-4-(4-fluoro-phenyl)-thiazol-5-yl]-pyridin-2-yl}-sulfoximine] | 0.17 |
| CCc1nc(-c2ccc(F)cc2)c(-c2ccnc(N=S(C)(=O)c3ccccc3)c2)s1 (stereo not shown) [Example 39, S-Methyl-S-phenyl-N-[4-(2-ethyl-4-(4-fluoro-phenyl)-1,3-thiazol-5-yl)-pyridine-2-yl]-sulfoximine] | 4.6 |
| CCc1nc(-c2ccc(F)cc2)c(-c2ccnc(N=S(C)(=O)c3ccc(F)cc3)c2)s1 (stereo not shown) [Example 41, S-Methyl-S-4-fluoro-phenyl-N-[4-(2-ethyl-4-(4-fluoro-phenyl)-1,3-thiazol-5-yl)-pyridine-2-yl]-sulfoximine] | 1.4 |
| CCc1nc(-c2ccc(F)cc2)c(-c2ccnc(N=S(=O)(c3ccccc3)C3CCCC3)c2)s1 (stereo not shown) [Example 42, S-Cyclopentyl-S-Phenyl-N-[4-(2-ethyl-4-(4-fluorophenyl)-1,3-thiazol-5-yl)-pyridine-2-yl]-sulfoximine] | 7.1 |
